Experimental data taken from patent US11833204B2, “Visible light-activatable nanoparticles for cancer immunotherapy and use thereof” (KOREA INSTITUTE OF SCIENCE AND TECHNOLOGY, priority 2021, dated 2023).

What was measured:
CT26 cells = experiment: Immunogenic cell death: calreticulin expression; type: cell-based; settings: CT26, 5 μM, 24 h, +L/−L
Protocol: First, CT26 cells were plated in 35 mm cell culture dishes at a density of 1×10^5 cells/dish and doxorubicin (DOX) (5 μM), verteporfin (VPF) (5 μM) or the self-assembled nanoparticles (LT-NPs) (5 μM) were added to each dish. After 24-h culture, one half was exposed by irradiation with visible light using a 671 nm laser at 40 mW for 250 sec (+L) and the other half was not irradiated with visible light for comparison (−L). The immunogenic cell death of the self-assembled nanoparticles (LT-NPs) was evaluated using the cells and the cell culture media.
Cells were stained with APC-conjugated CRT antibody for 12 h and observed with a confocal fluorescence microscope.

[1] = test system: spleen cells isolated from Balb/c mice; experiment: Immune cell activation: treated CT26 cells co-cultured with spleen cells (flow cytometry); type: cell-based; settings: 5 μM, co-culture with spleen cells 24 h; versus doxorubicin or verteporfin alone
Protocol: First, CT26 cells were plated in 100-pi cell culture dishes at a density of 1×10^6 cells/dish and cultured for stabilization for 24 h. Doxorubicin (DOX) (5 μM), verteporfin (VPF) […] or the self-assembled nanoparticles (LT-NPs) (5 μM) were added to each dish. After 24-h culture, one half was exposed by irradiation with visible light using a 671 nm laser at 40 mW for 250 sec (+L) and the other half was not irradiated with visible light for comparison (−L). 1×10^6 spleen cells isolated from Balb/c mice were added to each sample, followed by co-culture for 24 h (FIG. 4I).
The degrees of differentiation into mature dendritic cells and activated T cells in each sample were analyzed using a flow cytometer.

[2] = Morphological analysis by transmission electron microscopy in saline; type: physicochemical; settings: 1 mg in 1 mL physiological saline
Protocol: The self-assembled nanoparticles (LT-NPs) prepared in Example 1, doxorubicin (DOX), and verteporfin (VPF) were used as samples. 1 mg of each sample was mixed with physiological saline (1 mL). […] The self-assembled nanoparticles (LT-NPs) were mixed with cathepsin B (Cat-B) protease (50 μg/mL). The mixture was allowed to react for 24 h.

C=CC1=C(C)/C2=C/C3=NC(Cc4[nH]c(c(CCCCC(=O)OC)c4C)CC4N=C(CC1N2)C(C)=C4CCC(=O)N[C@H](Cc1ccccc1)C(=O)N[C@@H](CCCNC(=N)N)C(=O)N[C@H](CCCNC(=N)N)C(=O)NCC(=O)NC1C[C@@H](OC2C[C@](O)(C(=O)CO)Cc4c(O)c5c(c(O)c42)C(=O)c2c(OC)cccc2C5=O)O[C@@H](C)[C@H]1O)[C@@]1(C)C3=CC=C(C(=O)OC)[C@@H]1C(=O)OC (stereo partly shown) [LT-NPs, VPF-FRRG(SEQ ID NO: 1)-DOX]
calreticulin expression (CT26 cells): Significantly higher | degree of differentiation into activated T cells [1]: significantly higher | degree of differentiation into mature dendritic cells [1]: significantly higher | morphology in physiological saline (TEM) [2]: dispersed without aggregation in saline
